What was measured:
[1] = system: P. falciparum 3D7 trophozoites; experiment: Metabolomic fingerprint profiling LC-MS; assay type: cell-based, Plasmodium falciparum; parameters: UDP-D-glucose / ADP-D-glucose: unit not given here; conditions: for Acetyllysine / N-acetyl-L-ornithine / N-carbamoyl-L-aspartate / NADPH / dAMP / dCMP / dTDP / dTMP / dTTP / dihydroorotate / orotate / DLH / DLS/SDL/SID / PD / PEE / PVNF / 3-phosphoglycerate / ADP-D-glucose / ATP / CDP / D-sedoheptulose-1/7-phosphate / FAD / GMP / NAD+ / NADP+ / Octoluse Bisphosphate / Pyroglutamic acid / UDP-D-glucose / UDP-D-glucuronate / UDP-N-acetyl-glucosamine / UDP / UMP / UTP / a-ketoglutarate / citrate/isocitrate / cytidine / dATP / dGMP/AMP / fumarate / glucose-1/6-phosphate / glycerate / guanine / guanosine / hypoxanthine / indole / inosine / nicotinate / ornithine / phosphoenolpyruvate / pyruvate / ribose-phosphate / sarcosine/alanine / sn-glycerol-3-phosphate / succinate/methylmalonic acid / uridine / xanthosine: S2 Table Metabolomics; for Acetyllysine: metabolite Acetyllysine; for N-acetyl-L-ornithine: metabolite N-acetyl-L-ornithine; for N-carbamoyl-L-aspartate: metabolite N-carbamoyl-L-aspartate; for NADPH: metabolite NADPH; for dAMP: metabolite dAMP; for dCMP: metabolite dCMP; for dTDP: metabolite dTDP; for dTMP: metabolite dTMP; for dTTP: metabolite dTTP; for dihydroorotate: metabolite dihydroorotate; for orotate: metabolite orotate; for DLH: peptide DLH; for DLS/SDL/SID: peptide DLS/SDL/SID; for PD: peptide PD; for PEE: peptide PEE; for PVNF: peptide PVNF; for 3-phosphoglycerate: metabolite 3-phosphoglycerate; for ADP-D-glucose: metabolite ADP-D-glucose; for ATP: metabolite ATP; for CDP: metabolite CDP; for CDP / D-sedoheptulose-1/7-phosphate / GMP / Octoluse Bisphosphate / UDP / UMP / UTP / citrate/isocitrate / dGMP/AMP / fumarate / glucose-1/6-phosphate / glycerate / guanine / guanosine / inosine / pyruvate / sarcosine/alanine / succinate/methylmalonic acid / uridine / xanthosine: change in metabolite level after compound treatment; for D-sedoheptulose-1/7-phosphate: metabolite D-sedoheptulose-1/7-phosphate; for FAD: metabolite FAD; for GMP: metabolite GMP; for NAD+: metabolite NAD+; for NADP+: metabolite NADP+; for Octoluse Bisphosphate: metabolite Octoluse Bisphosphate; for Pyroglutamic acid: metabolite Pyroglutamic acid; for UDP-D-glucose: metabolite UDP-D-glucose; for UDP-D-glucuronate: metabolite UDP-D-glucuronate; for UDP-N-acetyl-glucosamine: metabolite UDP-N-acetyl-glucosamine; for UDP: metabolite UDP; for UMP: metabolite UMP; for UTP: metabolite UTP; for a-ketoglutarate: metabolite a-ketoglutarate; for citrate/isocitrate: metabolite citrate/isocitrate; for cytidine: metabolite cytidine; for dATP: metabolite dATP; for dGMP/AMP: metabolite dGMP/AMP; for fumarate: metabolite fumarate; for glucose-1/6-phosphate: metabolite glucose-1/6-phosphate; for glycerate: metabolite glycerate; for guanine: metabolite guanine; for guanosine: metabolite guanosine; for hypoxanthine: metabolite hypoxanthine; for indole: metabolite indole; for inosine: metabolite inosine; for 2_3-Diphosphoglyceric acid / 4-phosphopantothenate / 6-phospho-D-gluconate / FMN / IMP / Pyrophosphate / Sedoheptoluse bisphosphate / cyclic-AMP / glutathione disulfide / lactate / myo-inositol: metabolite level change after treatment; for nicotinate: metabolite nicotinate; for ornithine: metabolite ornithine; for phosphoenolpyruvate: metabolite phosphoenolpyruvate; for pyruvate: metabolite pyruvate; for ribose-phosphate: metabolite ribose-phosphate; for sarcosine/alanine: metabolite sarcosine/alanine; for sn-glycerol-3-phosphate: metabolite sn-glycerol-3-phosphate; for succinate/methylmalonic acid: metabolite succinate/methylmalonic acid; for uridine: metabolite uridine; for xanthosine: metabolite xanthosine
[2] = system: Saccharomyces cerevisiae strain WC081; experiment: Yeast disc diffusion in combination with artemisinin; assay type: cell-based; conditions: 10 µL of 1 mM on disc, 0.2 µM artemisinin, read-out: larger zone size with artemisinin (SCG+artemisinin minus SCG)
Text: Yeast screening for enhanced drug effects in combination with artemisinin, Jensen group (data presented first in this paper). […] Yeast (S. cerevisiae) was used as a proxy for P. falciparum, because the killing of S. cerevisiae and P. falciparum appear to have similarities. Saccharomyces cerevisiae strain WC081 (Mat a, leu2∆0, lys2∆0, ura3∆0, his3∆1, pdr1∆::HIS3, pdr3∆::kanMX4) was utilized and was originally derived from strain BY4742. Regulators of Multi-drug resistance transporters have been deleted from this strain to enhance the toxicity of compounds. Assay utilized the disc diffusion method with the observance of a clear zone indicating inhibition of growth. Synthetic complete medium containing 3% glycerol as a carbon source (SCG) was used in each assay. 10 µL of each compound at 1 mM was added to a paper disc which was placed on SCG and SCG^+artemisinin (0.2 µM) plates seeded with 10e6 yeast cells. Plates were incubated at 30 °C for 5 days and clear zones were measured. Compounds that produced a larger clear zone in the presence of artemisinin were considered to have an additive interaction with artemisinin. Results are reported as diameter of clear zone on SCG^+artemisinin plates - diameter of clear zone on SCG plates without artemisinin.

P. falciparum = experiment: EC50 listed in S2 Table Metabolomics (used to set the concentration tested); assay type: cell-based; conditions: Plasmodium falciparum; EC50 used for Factor_XEC50 in metabolomics; read-out: EC50_nM
Atg8-Atg3 = system: Atg8-Atg3; parameters: method as in ref [38] (a number printed in a supplementary file, which may have a reference list of its own: not looked up in the article's list); conditions: ref [38]; cited from earlier work

## Cc1cc(Nc2ccc3ccccc3c2)n2ncnc2n1 [MMV011099]
[1]
  Acetyllysine: 0.02852
  N-acetyl-L-ornithine: 0.1505
  N-carbamoyl-L-aspartate: 3.868
  NADPH: 1.182
  dAMP: -0.08024
  dCMP: -0.5906
  dTDP: -1.017
  dTMP: -0.9279
  dTTP: -1.156
  dihydroorotate: 4.157
  orotate: -1.974
  DLH: 0.4532
  DLS/SDL/SID: 0.4641
  PD: 0.1181
  PEE: 0.2947
  PVNF: 0.2329
  3-phosphoglycerate: -0.2056
  ADP-D-glucose: 0.1525
  ATP: 0.2332
  CDP: -0.709
  D-sedoheptulose-1/7-phosphate: 0.01889
  FAD: 0.08024
  GMP: 0.02967
  NAD+: -0.0008425
  NADP+: 0.1353
  Octoluse Bisphosphate: 0.08614
  Pyroglutamic acid: -0.4752
  UDP-D-glucose: 0.067
  UDP-D-glucuronate: -0.02366
  UDP-N-acetyl-glucosamine: -0.1127
  UDP: -1.3628
  UMP: -1.675
  UTP: -1.64
  a-ketoglutarate: -1.062
  citrate/isocitrate: -1.28
  cytidine: 0.7717
  dATP: 0.5433
  dGMP/AMP: -0.03244
  fumarate: -1.091
  glucose-1/6-phosphate: 0.2093
  glycerate: -1.246
  guanine: -0.547
  guanosine: -1.524
  hypoxanthine: 0.001118
  indole: 0.03287
  inosine: -0.4013
  2_3-Diphosphoglyceric acid: -0.01924
  4-phosphopantothenate: -0.6208
  6-phospho-D-gluconate: 0.1135
  FMN: -0.06047
  IMP: -0.0451
  Pyrophosphate: 0.1187
  Sedoheptoluse bisphosphate: -0.1999
  cyclic-AMP: -0.1393
  glutathione disulfide: -0.2357
  lactate: -0.8843
  myo-inositol: -1.14
  nicotinate: -1.365
  ornithine: 0.02843
  phosphoenolpyruvate: -0.5081
  pyruvate: -1.9111
  ribose-phosphate: 0.184
  sarcosine/alanine: -0.4398
  sn-glycerol-3-phosphate: -0.3081
  succinate/methylmalonic acid: -0.5239
  uridine: -1.376
  xanthosine: -0.974
[2]
  zone of inhibition at 1000 µM: 7 mm
P. falciparum
  EC50: 242 nM

## CSc1ccccc1C(=O)Nc1nc(-c2ccccn2)cs1 [MMV001246]
[1]
  Acetyllysine: 0.4532
  N-acetyl-L-ornithine: 0.4087
  N-carbamoyl-L-aspartate: 0.8167
  NADPH: -0.6152
  dAMP: 0.5623
  dCMP: 1.316
  dTDP: 1.003
  dTMP: 1.155
  dTTP: 0.605
  dihydroorotate: 0.8484
  orotate: -0.04882
  DLH: -0.1638
  DLS/SDL/SID: -0.1191
  PD: 1.085
  PEE: 0.2734
  PVNF: -0.2587
  3-phosphoglycerate: -0.3067
  ADP-D-glucose: 0.2637
  ATP: -0.316
  CDP: 1.161
  D-sedoheptulose-1/7-phosphate: 0.9582
  FAD: -0.06449
  GMP: -0.2602
  NAD+: 0.05063
  NADP+: 0.1259
  Octoluse Bisphosphate: -0.02993
  Pyroglutamic acid: -0.6363
  UDP-D-glucose: 0.1597
  UDP-D-glucuronate: 0.09079
  UDP-N-acetyl-glucosamine: 0.2113
  UDP: 1.27
  UMP: -0.2249
  UTP: 0.2071
  a-ketoglutarate: -0.3343
  citrate/isocitrate: 0.6139
  cytidine: -0.1132
  dATP: -0.2342
  dGMP/AMP: 0.5523
  fumarate: 0.07419
  glucose-1/6-phosphate: 0.3611
  glycerate: -0.4138
  guanine: 0.2842
  guanosine: 0.03562
  hypoxanthine: -0.2148
  indole: -0.09781
  inosine: -0.005486
  2_3-Diphosphoglyceric acid: 0.509
  4-phosphopantothenate: 0.08862
  6-phospho-D-gluconate: 0.2643
  FMN: 0.1616
  IMP: 0.3566
  Pyrophosphate: 0.4487
  Sedoheptoluse bisphosphate: -0.09548
  cyclic-AMP: -0.2042
  glutathione disulfide: 0.1188
  lactate: -0.259
  myo-inositol: -0.2589
  nicotinate: -0.09283
  ornithine: 0.2998
  phosphoenolpyruvate: -0.3081
  pyruvate: -0.1972
  ribose-phosphate: -0.4595
  sarcosine/alanine: 0.1583
  sn-glycerol-3-phosphate: -0.08199
  succinate/methylmalonic acid: 0.009107
  uridine: 0.08525
  xanthosine: -0.2265
[2]
  zone of inhibition at 1000 µM: 3 mm
Atg8-Atg3
  PPI inhibitors of Atg8-Atg3 interaction: PPI inhibitors
P. falciparum
  EC50: 206 nM
